Patent publication US12419862B2, “Use of a cathepsin s inhibitor against the formation of anti-drug antibodies” (Hoffmann-La Roche Inc., priority 2018, dated 2025)

Tests used:
[1] = system: CEA-specific IgG response; assay: ADA against CEA-IL2v in wild-type mice over time, ELISA (Example 4, 63 days); assay type: in vivo, C57BL/6 wild type mice; details: 40 mg/kg/day via food admix, primary and memory response, samples to day 63, vs vehicle
Description: 15-week-old mice C57BL/6-Tg (hIgG1,k,l) and C57BL/6 wild type mixed gender were purchased from Taconic (Denmark) and housed at the animal facilities in room with air-conditioned under a 12 hours light/dark cycle in macrolon boxes with enriched environment and free access to water and food. 7×10 μg of CEA-IL2v (Batch no GLI0144-01) were injected at day 0, 4, 7, 11, 14, 18 and 21 for the primary response, and at day 49, 53, 56 and 60 for the memory response. The CEA-112v injections were done subcutaneously in the right flank or the left flank alternatively. The dosage of (2S,4R)-4-[4-(1-methyl-1H-pyrazol-4-yl)-2-trifluoromethyl-benzenesulfonyl]-1-(1-trifluoromethyl-cyclopropanecarbonyl)-pyrrolidine-2-carboxylic acid (1-cyano-cyclopropyl)-amide consumption was 40 mg/kg/day. […]
(§1) Nunc Maxisorp flat-bottom 96 well ELISA plates were coated with 100 μl per well of Humira or CEA-PGLALA respectively at 5 μg/mL in NaHCO3100 mM buffer overnight at +4° C. […] 100 μl of substrate P-nitrophenyl phosphate ready to use (Life Technologies, Cat no 002212) were added per well and after 10 min incubation at room temperature, the OD at 405 nm was read as an end-point measurement with a Versamax ELISA reader.

[2] = system: IgG response to murine surrogate FAP-OX40; assay: ADA against murine surrogate FAP-OX40 in wild-type mice, ELISA (Example 6); assay type: in vivo, C57BL/6 mice; details: 40 mg/kg/day via food admix from one week before first immunization until day 23
Description: 10-week-old female mice C57BL/6 were purchased from Charles River Laboratories (Germany) and housed at the animal facilities in room with air-conditioned under a 12 hours light/dark cycle in macrolon boxes with enriched environment and free access to water and food. 12.5 mg/kg of muFAP-OX40iMab (P1AD4396-005) were injected at day 1, 4 and 8 intravenously to the group 2 (n=10 mice) and at day 1, 4, 8, 11, 15, 18 and 22 to the group 3 (n=10 mice) respectively. The dosage of (2S,4R)-4-[4-(1-methyl-1H-pyrazol-4-yl)-2-trifluoromethyl-benzenesulfonyl]-1-(1-trifluoromethyl-cyclopropanecarbonyl)-pyrrolidine-2-carboxylic acid (1-cyano-cyclopropyl)-amide consumption was 40 mg/kg/day. […]
as §1, with “FAP(28H1)-OX40(49B4) PGLALA (P1AD4523)” for “Humira”, “anti OX40 moIgG2a (P1AD4561)” for “CEA-PGLALA”

## Cn1cc(-c2ccc(S(=O)(=O)[C@@H]3C[C@@H](C(=O)NC4(C#N)CC4)N(C(=O)C4(C(F)(F)F)CC4)C3)c(C(F)(F)F)c2)cn1 [cathepsin S inhibitor, (2S,4R)-4-[4-(1-methyl-1H-pyrazol-4-yl)-2-trifluoromethyl-benzenesulfonyl]-1-(1-trifluoromethyl-cyclopropanecarbonyl)-pyrrolidine-2-carboxylic acid (1-cyano-cyclopropyl)-amide]
[1]
  ADA to CEA-IL2v (CEA-specific IgG) over time: reduces its levels in wild-type mice
[2]
  ADA specific to FAP (VHVL) domain of murine surrogate FAP-OX40: prevents ADA
  OX40-specific ADA to murine surrogate FAP-OX40: prevents ADA
